Assay results as given in patent publication US20110301162A1, “AURORA KINASE MODULATORS AND METHODS OF USE” (AMGEN INC., priority 2008, published 2011).

What was measured:
AuroraB = biological target: T1, AuroraB (Homo sapiens, UniProt Q96GD4); assay: AuroraB Homogeneous Time Resolved Fluorescent (HTRF) kinase assay; type: biochemical; conditions: average; ATP 23 μM; read-out: AurB_IC50_IP (uM Avg)
T1 construct: 20 μL of AuroraB FL His; His
Experimental: The AuroraB HTRF assay begins with AuroraB in the presence of ATP phosphorylating the biotinylated peptide Histone H3. The reaction incubates for about 90 min. the reaction is quentched by addition of detection reagents, which stop the reaction by diluting out the enzyme and chelating the metals due to the presence of EDTA. After addition, the assay is incubated for about 60 min to allow detection reagents to equilibrate.
The AuroraB HTRF assay comprises 1 μL of compound in 100% DMSO, 20 μL of ATP and biotinylated Histone H3, and 20 μL of AuroraB FL His for a final volume of 41 μL. The final concentration of Histone H3 is 0.1 μM. The final concentration of ATP is 23 μM (Km(app)=23 μM+/−2.6) and the final concentration of AuroraB is 400 pM. Buffer conditions are as follows: 50 mM HEPES pH 7.5, 5 mM NaCl, 0.5 mM MgCl, 0.5 mM MnCl, 2 mM DTT, 0.05% BSA.
(§1) The assay is quenched and stopped with 160 μL of detection reagent. Detection reagents are as follows: Buffer made of 50 mM Tris, pH 7.5, 100 mM NaCl, 3 mM EDTA, 0.05% BSA, 0.1% Tween20. Added to this buffer prior to reading is Steptavidin allophycocyanin (SA-APC) at a final conc in the assay of 0.001 mg/mL, and europilated anti-phosphoHistoneH3 Ab (Eu-anti-HisH3) at a final conc of 0.064 nM.
(§2) The assay plate is read in either a Discovery or a RubyStar. The eu-anti-HisH3 is excited at 320 nm and emits at 615 nm to excite the SA-APC which in turn emits at 655 nm. The ratio of SA-APC at 655 nm (excited due to close proximity to the Eu-anti-HisH3 because of phosphorylation of the peptide) to free Eu-anti-HisH3 at 615 nm will give substrate phosphorylation.
Many of the Examples described herein were tested, and fund to be active compounds. Table I includes related biological data, which may be interpreted using the activity gauge below.

HeLa cells = assay: HeLa cell 24 hr ploidy assay; type: cell-based; conditions: Homo sapiens, 24 hrs treatment, DNA ploidy, average, read-out: 24h_4N Ploidy EC50_IP (uM Avg)
Experimental: The purpose of this assay is to evaluate the ability of selected individual compounds to induce Deoxyribonucleic acid (DNA) content (ploidy) in cells through failed cell division. Cell cycle analysis is a rapid and efficient way to evaluate the status of DNA content (ploidy) of a given cell. HeLa cells (1×10^4 HeLa cells/well) in 100 ul of media (MEM+10% FBS) were plated in 96-well plates (Packard View) and cultured for 24 hrs at 37° C. maintained in a 5% CO2 atmosphere. The following day, cells were treated for 24 hrs with inhibitor compounds (10 pt. Dose ranging from 0.0024-1.25 umol/L). The compounds were serially diluted in DMSO (0.25% final concentration). The cells were fixed (3.7% Formaldehyde and 1% glutaraldehyde) and permeabilized (1×PBS with 1% BSA an d0.2% Triton X-100) in preparation for nuclear staining. The well plates were stained for 45 minutes at RT in the dark using Hoechest 33342 nuclear stain at 0.5 ug.ml (Stock of 10 mg/ml, Invitrogen, Calif., Cat #H3570). The nuclear stain was removed by aspiration and the cells were washed with wash buffer. A Cellomics Array Scan Vti plate reader was used to acquire the DNA ploidy data of the cells using Cell Cycle bioapplication. Numbers for each of “valid cell count/well”, “% of 4N cells” and “% of >4Ncells” were calculated with the assistance of an Activity Base 5.1ca software and dose curves were generated using an XLFit software. With XLFit, final EC50 IP and EC50 transit values, as well as the Max and Min, were calculated for each curve.

AuroraA-TPX2 = biological target: T2, AuroraA-TPX2 (Homo sapiens, UniProt O14965); assay: AuroraA-TPX2 Homogeneous Time Resolved Fluorescent (HTRF) kinase assay; type: biochemical; conditions: average; ATP about 1 μM; read-out: AurA_IC50_IP (uM Avg)
T2 construct: 20 μL of AuroraA-TPX2 KD GST; GST
T2 sequence (O14965 133-383 limits assumed): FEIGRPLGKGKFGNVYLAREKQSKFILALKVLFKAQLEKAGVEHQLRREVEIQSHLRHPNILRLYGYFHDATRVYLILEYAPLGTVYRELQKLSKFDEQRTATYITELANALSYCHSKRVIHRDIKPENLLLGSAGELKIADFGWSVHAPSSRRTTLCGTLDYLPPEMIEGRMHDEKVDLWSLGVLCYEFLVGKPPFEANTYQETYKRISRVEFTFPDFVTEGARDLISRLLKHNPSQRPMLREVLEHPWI
T2 sequence (Q9ULW0 1-43 partner limits assumed): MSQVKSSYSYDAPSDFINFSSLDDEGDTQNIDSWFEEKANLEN
Experimental: The Aurora-A HTRF assay begins with Aurora-A in the presence of ATP phosphorylating the biotinylated peptide PLK. The reaction incubates for about 120 min. Detection reagents are added to quench the reaction. These agents stop the reaction by diluting out the enzyme and chelating the metals due to the presence of EDTA. After addition, the assay is incubated overnight to allow the detection reagents to equilibrate.
The AuroraA HTRF assay comprises 1 μL of compound in 100% DMSO, 20 μL of ATP and biotinylated PLK, and 20 μL of AuroraA-TPX2 KD GST for a final volume of about 41 μL. The final concentration of PLK is about 1 μM. The final concentration of ATP is about 1 μM (Km(app)=1 μM+/−0.1) and the final concentration of AuroraA is about 5 nM. Buffer conditions are as follows: 60 mM HEPES pH 7.5, 25mM NaCl, 10 mM MgCl, 2 mM DTT, 0.05% BSA.
as §1, with “0.0005” for “0.001”, “anti-phosphoPLK” for “anti-phosphoHistoneH3”, “(Eu-anti-PLK)” for “(Eu-anti-HisH3)”, “0.02” for “0.064”
as §2, with “eu-anti-PLK” for “eu-anti-HisH3”, “Eu-anti-PLK” for “Eu-anti-HisH3”
Many of the Examples described herein were tested and found to be active compounds. Table I includes related biological data, which may be interpreted using the activity gauge below.

T1 sequence (Q96GD4 whole entry): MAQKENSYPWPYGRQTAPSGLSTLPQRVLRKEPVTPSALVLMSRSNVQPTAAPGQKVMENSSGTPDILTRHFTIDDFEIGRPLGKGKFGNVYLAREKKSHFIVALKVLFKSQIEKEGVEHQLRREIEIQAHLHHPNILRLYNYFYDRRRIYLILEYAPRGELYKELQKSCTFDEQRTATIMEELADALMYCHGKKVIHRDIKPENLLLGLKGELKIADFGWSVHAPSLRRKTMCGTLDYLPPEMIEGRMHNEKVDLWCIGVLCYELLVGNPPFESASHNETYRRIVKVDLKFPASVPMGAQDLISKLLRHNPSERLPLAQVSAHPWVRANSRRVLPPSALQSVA

CNC(=O)c1cc(Sc2ccc(Nc3nnc(-c4ccc(Cl)cc4)c4ccccc34)cc2)ccn1 [Example 25, 4-((4-((4-(4-chlorophenyl)-1-phthalazinyl)amino)phenyl)thio)-N-methyl-2-pyridinecarboxamide]
IC50 (AuroraB): 0.1 to 0.5 µM | EC50 (HeLa cells): 0.1 to 0.5 µM | IC50 (AuroraA-TPX2): 1 to 5 µM

CNC(=O)c1cc(Oc2ccc(Nc3nnc(-c4ccc(Cl)cc4)c4ccccc34)cc2)ccn1 [Example 26, 4-((4-((4-(4-chlorophenyl)-1-phthalazinyl)amino)phenyl)oxy)-N-methyl-2-pyridinecarboxamide]
IC50 (AuroraB): 0.1 to 0.5 µM | EC50 (HeLa cells): 0.1 to 0.5 µM | IC50 (AuroraA-TPX2): 0.1 to 0.5 µM

Nc1cc(Sc2ccc(Nc3nnc(-c4ccc(Cl)cc4)c4ccccc34)cc2)ccn1 [Example 27, N-(4-((2-amino-4-pyridinyl)thio)phenyl)-4-(4-chlorophenyl)-1-phthalazinamine]
IC50 (AuroraB): < 0.1 µM | EC50 (HeLa cells): 0.1 to 0.5 µM | IC50 (AuroraA-TPX2): 0.1 to 0.5 µM

CNc1cc(Sc2ccc(Nc3nnc(-c4ccc(Cl)cc4)c4ccccc34)cc2)ccn1 [Example 28, 4-(4-chlorophenyl)-N-(4-((2-(methylamino)-4-pyridinyl)thio)phenyl)-1-phthalazinamine]
IC50 (AuroraB): < 0.1 µM | EC50 (HeLa cells): 0.1 to 0.5 µM | IC50 (AuroraA-TPX2): 0.1 to 0.5 µM

CS(=O)(=O)CCNc1cc(Oc2ccc(Nc3nnc(-c4ccc(Cl)cc4)c4ccccc34)cc2)ccn1 [Example 29, 4-(4-chlorophenyl)-N-(4-((2-((2-(methylsulfonyl)ethyl)amino)-4-pyridinyl)oxy)phenyl)-1-phthalazinamine]
IC50 (AuroraB): 0.1 to 0.5 µM | EC50 (HeLa cells): 1 to 5 µM | IC50 (AuroraA-TPX2): 0.1 to 0.5 µM

Clc1ccc(-c2nnc(Nc3ccc(Oc4ccnc(/C=C/c5ccccc5)n4)cc3)c3ccccc23)cc1 [Example 30, 4-(4-chlorophenyl)-N-(4-((2-((E)-2-phenylethenyl)-4-pyrimidinyl)oxy)phenyl)-1-phthalazinamine]
IC50 (AuroraB): < 0.1 µM | EC50 (HeLa cells): 0.1 to 0.5 µM | IC50 (AuroraA-TPX2): 0.1 to 0.5 µM

OCCNc1nccc(Sc2ccc(Nc3nnc(-c4ccccc4)c4ccccc34)cc2)n1 [Example 31, 2-((4-((4-((4-phenyl-1-phthalazinyl)amino)phenyl)sulfanyl)-2-pyrimidinyl)amino)ethanol]
IC50 (AuroraB): < 0.1 µM | EC50 (HeLa cells): 0.1 to 0.5 µM | IC50 (AuroraA-TPX2): 0.1 to 0.5 µM

OCCNc1nccc(Sc2ccc(Nc3nnc(-c4ccc(Cl)cc4)c4ccccc34)cc2)n1 [Example 32, 2-((4-((4-((4-(4-chlorophenyl)-1-phthalazinyl)amino)phenyl)sulfanyl)-2-pyrimidinyl)amino)ethanol]
IC50 (AuroraB): < 0.1 µM | EC50 (HeLa cells): < 0.1 µM | IC50 (AuroraA-TPX2): < 0.1 µM

CNCCNc1nccc(Sc2ccc(Nc3nnc(-c4ccccc4)c4ccccc34)cc2)n1 [Example 33, N-methyl-N′-(4-((4-((4-phenyl-1-phthalazinyl)amino)phenyl)sulfanyl)-2-pyrimidinyl)-1,2-ethanediamine]
IC50 (AuroraB): 1 to 5 µM | EC50 (HeLa cells): 1 to 5 µM

CNCCNc1nccc(Sc2ccc(Nc3nnc(-c4ccc(Cl)cc4)c4ccccc34)cc2)n1 [Example 34, N-(4-((4-((4-(4-chlorophenyl)-1-phthalazinyl)amino)phenyl)sulfanyl)-2-pyrimidinyl)-N′-methyl-1,2-ethanediamine]
IC50 (AuroraB): 0.5 to 1 µM | EC50 (HeLa cells): 0.1 to 0.5 µM | IC50 (AuroraA-TPX2): 1 to 5 µM

Clc1ccc(-c2nnc(Nc3ccc(Sc4ccnc(/C=C/c5ccccc5)n4)cc3)c3ccccc23)cc1 [Example 35, 4-(4-chlorophenyl)-N-(4-((2-((E)-2-phenylethenyl)-4-pyrimidinyl)sulfanyl)phenyl)-1-phthalazinamine]
IC50 (AuroraB): < 0.1 µM | EC50 (HeLa cells): < 0.1 µM | IC50 (AuroraA-TPX2): 0.1 to 0.5 µM

Clc1ccc(-c2nnc(Nc3ccc(Sc4ccnc(-c5cc6ccccc6[nH]5)n4)cc3)c3ccccc23)cc1 [Example 36, 4-(4-chlorophenyl)-N-(4-((2-(1H-indol-2-yl)-4-pyrimidinyl)sulfanyl)phenyl)-1-phthalazinamine]
IC50 (AuroraB): < 0.1 µM | EC50 (HeLa cells): < 0.1 µM | IC50 (AuroraA-TPX2): < 0.1 µM

Cc1csc(-c2nnc(Nc3ccc(Sc4ccnc(-c5cc6ccccc6[nH]5)n4)cc3)c3ccccc23)c1 [Example 37, N-(4-((2-(1H-indol-2-yl)-4-pyrimidinyl)sulfanyl)phenyl)-4-(4-methyl-2-thiophenyl)-1-phthalazinamine]
IC50 (AuroraB): < 0.1 µM | EC50 (HeLa cells): < 0.1 µM | IC50 (AuroraA-TPX2): < 0.1 µM

Clc1ccc(-c2nnc(Nc3ccc(Oc4ccnc(/C=C/c5ccccc5)c4)cc3)c3ccccc23)cc1 [Example 40, 4-(4-chlorophenyl)-N-(4-((2-((E)-2-phenylethenyl)-4-pyridinyl)oxy)phenyl)-1-phthalazinamine]
IC50 (AuroraB): < 0.1 µM | IC50 (AuroraA-TPX2): 0.1 to 0.5 µM

Cc1ccc(-c2nnc(Nc3ccc(Sc4ccnc(-c5cc6ccccc6[nH]5)n4)cc3)c3ccccc23)cc1N [Example 41, 4-(3-amino-4-methylphenyl)-N-(4-((2-(1H-indol-2-yl)-4-pyrimidinyl)sulfanyl)phenyl)-1-phthalazinamine]
IC50 (AuroraB): < 0.1 µM | IC50 (AuroraA-TPX2): 0.1 to 0.5 µM

c1ccc(-c2nnc(Nc3ccc(Sc4ccnc(-c5cc6ccccc6[nH]5)n4)cc3)c3ccccc23)cc1 [Example 42, N-(4-((2-(1H-indol-2-yl)-4-pyrimidinyl)sulfanyl)phenyl)-4-phenyl-1-phthalazinamine]
IC50 (AuroraB): 0.1 to 0.5 µM | EC50 (HeLa cells): 1 to 5 µM

CSc1nccc(Oc2ccc(Nc3nnc(-c4ccccc4)c4ccccc34)cc2)n1 [Example 43, N-(4-((2-(methylthio)-4-pyrimidinyl)oxy)phenyl)-4-phenyl-1-phthalazinamine]
IC50 (AuroraB): 1 to 5 µM | EC50 (HeLa cells): 0.1 to 0.5 µM
